# Experimental data from PMC8802628, “Selective activation of PFKL suppresses the phagocytic oxidative burst” (Cell, 2021).
# What was measured:
# PFKL = biological target: T1, PFKL (Homo sapiens, UniProt P17858); test: Thermal shift of PFKL by immunoblotting in THP-1 lysates; assay type: binding
# T1 construct: endogenous in cells; host or cells: THP-1 cell lysate
# T1 sequence (P17858 2-780 limits assumed): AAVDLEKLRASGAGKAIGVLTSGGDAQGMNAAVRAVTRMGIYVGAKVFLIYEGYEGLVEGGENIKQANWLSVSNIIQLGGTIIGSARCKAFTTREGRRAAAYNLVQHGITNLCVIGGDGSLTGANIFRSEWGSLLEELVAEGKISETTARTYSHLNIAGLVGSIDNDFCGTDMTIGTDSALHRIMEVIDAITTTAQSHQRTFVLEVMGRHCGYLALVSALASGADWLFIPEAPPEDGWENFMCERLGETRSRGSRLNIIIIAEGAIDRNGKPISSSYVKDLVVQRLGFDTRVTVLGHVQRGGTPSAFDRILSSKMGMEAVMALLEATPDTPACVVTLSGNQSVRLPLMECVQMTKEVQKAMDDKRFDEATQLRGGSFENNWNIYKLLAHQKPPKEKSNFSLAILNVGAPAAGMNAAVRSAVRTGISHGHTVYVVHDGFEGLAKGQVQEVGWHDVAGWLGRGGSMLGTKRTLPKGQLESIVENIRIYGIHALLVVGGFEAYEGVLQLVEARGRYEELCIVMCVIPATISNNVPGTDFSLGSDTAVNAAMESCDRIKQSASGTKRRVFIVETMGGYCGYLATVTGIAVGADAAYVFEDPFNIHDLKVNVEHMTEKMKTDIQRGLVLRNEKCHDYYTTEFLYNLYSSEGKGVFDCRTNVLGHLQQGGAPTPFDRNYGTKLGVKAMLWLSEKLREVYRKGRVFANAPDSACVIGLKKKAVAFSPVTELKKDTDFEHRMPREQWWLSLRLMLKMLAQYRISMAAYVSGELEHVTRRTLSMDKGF
# Description: Figure 2. Chemoproteomic analysis of the global interactors and specific targets of NA-11 (A) Dual chemoproteomic workflow. (B) TPP analysis of neutrophil lysates. Graph plots the ΔTm induced by NA-11 between 37°C and 65°C versus log2(fold change in the area under the melting curve from 44°C to 58°C). Each circle represents a different protein. Top hits with an upward shift in Tm are boxed. p values were determined by paired Student’s t test. (C) Percentage of PMNs undergoing PMA-induced NETosis. Bars show the mean ± SD of cells from three donors. (D) Structures of PALP1 and PALP6. […] Dot size indicates the p values from the affinity pull-downs (paired Student’s t test). […] (F) Western blots of THP-1 lysates heated for 3 min. Graph indicates PFKL band intensities quantified using ImageJ. Data are the mean ± SD of three independent experiments. See also Figures S2 and S3.
# We validated the interaction of NA-11 with PFKL in THP-1 cells by immunoblotting PFKL in TPP samples (Figure 2F). […] PDE6δ sustains Ras signaling, which activates the Raf-MEK (mitogen-activated ERK kinase)-ERK (extracellular signal-regulated kinase) pathway ([Chandra et al., 2011]). […] Thus, NA-11 must not inhibit NETosis by compromising the MEK-ERK signaling cascade downstream of PDE6δ.
# PMNs = test: LC-MS of glycolysis and pentose phosphate pathway metabolites; assay type: cell-based, human
# Description: Neutrophils (1 × 10^7) were untreated or pretreated with 0.5 μM NA-11 for 25 min, and then activated with 50 nM PMA for 30 min. Cell were washed twice in D-PBS and frozen in liquid nitrogen. Metabolites were extracted following protein precipitation using 500 μL cold (−80°C) MeOH:H2O (8:2, V:V) mixture. Aliquots (250 μL) were evaporated and reconstituted with 75 μL of MeOH:H2O (8:2, V:V) containing a series of stable isotope labeled internal standards. LC-MS analysis was performed on a Shimadzu Nexera HPLC series system (Shimadzu, Kyoto, Japan) couple with a Thermo Q Exactive Plus Hybrid Quadrupole-Orbitrap Mass Spectrometer (Thermo Fisher Scientific, Waltham, MA, USA). A Phenomenex Luna NH2 HPLC column (100 Å, 250 mm × 2 mm × 3 μm, Phenomenex, Torrance, CA, USA) was used to separate the analytes of interest. Samples (5 μL) were analyzed under Heated Electrospray Ionization (HESI) in negative mode with a flow rate of 0.4 mL/min and a total run time of 50 min. The mobile phases consisted of (A) 20 mM ammonium hydroxide and 20 mM ammonium acetate in H2O and (B) acetonitrile. The gradient was 0 min, 85% B; 0.5 min, 85% B; 15 min, 0% B; 38 min, 0% B; 40 min, 85% B; 50 min, 85% B. The autosampler temperature was 4°C, and the column temperature was 40°C. The Q Exactive Plus Mass Spectrometer parameters were: sheath gas flow rate, 50 units; aux gas flow rate, 13 units; aux gas temperature, 425°C; capillary temperature, 263°C; spray voltage, −2500 V; scan mode, full MS; scan range, 60-900 m/z; resolution, 70,000; AGC target, 3 × 10^6; maximum IT, 200 ms. Data was processed with TraceFinder (Thermo Fisher Scientific, Waltham, MA, USA). %RSDs of a series of stable isotope-labeled internal standards were calculated to check system suitability and data robustness. Relative MS peak area ratio (Peak Area of Analyte / Peak Area of Internal Standard) was used for compound quantification. […] Pyruvate concentration was quantified using a calibration curve of chemical standard (with stable isotope labeled internal standard, Pyruvate-^13C3) in the surrogate matrix.
# [1] = in the context of PMA activation
smiles,measurement,setting,value
CC(=O)Nc1ccc2c(c1)OCc1cc(-c3ccccc3C#CCCCO)nn1C2 [NA-11],melting temperature of PFKL with compound,PFKL; 55°C ± 1°C without shift,59 °C
same,thermal shift in PFKL,PFKL; immunoblot,4 °C
same,levels of FBP,"PMNs; compound alone, no PMA",slightly increased levels of FBP
same,"glycolysis metabolites (FBP, DHAP, G-3-P)",PMNs; [1],increased glycolysis metabolites
same,pentose phosphate pathway metabolites,PMNs; [1],maintained pentose phosphate pathway metabolites at baseline levels
